Drawing on US6861409B2, “Growth hormone secretagogues” (Zentaris AG, priority 2000, dated 2005), this text covers GH for 35 compounds.

Square brackets hold non-standard residues; d marks the D form. Peptide text beside a SMILES is read from it. dTrp(2-Me) = Cc1[nH]c2ccccc2c1C[C@@H](N)C(=O)O

In the assay the test system is plasma GH concentrations. Briefly: Growth hormone releasing activity in the infant rat (plasma GH by RIA). The format is in vivo, Sprague Dawley rats. Conditions: male 10-day-old rats, 300 μg/kg subcutaneously, plasma 15 min later. The protocol: Male 10-day-old Sprague Dawley rats, about 25 g body weight were used.
One hour before the experiments, pups were separated from their respective dams and were divided randomly into groups of eight each.
Pups were acutely challenged subcutaneously with 100 μl of solvent (DMSO, final dilution 1:300 in physiological saline), hexarelin (Tyr-Ala-His-D-Mrp-Ala-Trp-D-Phe-Lys-NH2, used as a reference drug), or new compounds (300 μg/kg) and killed by decapitation 15 min later.
Trunk blood was collected and centrifuged immediately. Plasma samples were stored at −20° C. until assayed for the determination of plasma GH concentrations.
Growth hormone concentrations in plasma were measured by RIA using materials provided by the National Institute of Diabetes, Digestive and Kidney Diseases (NIDDK) of the National Institute of Health U.S.A.
Values were expressed in terms of the NIDDK-rat-GH-RP-2 standard (potency 21 U/mg) as ng/ml of plasma.
The minimum detectable value of rat GH was about 1.0 ng/ml, and intraassay variability was about 6%.

For `CC(=O)NC(Cc1c[nH]c2ccccc12)NC(=O)C(Cc1c[nH]c2ccccc12)NC(=O)C1CCNCC1` [Example 9, Isonipecotyl-D-Trp-D-gTrp-C(O)CH3], the GH (Table 3 test series) is 61.2 ± 10.8 ng/mL.
In the case of `CNC(C)(C)C(=O)NC(Cc1c[nH]c2ccccc12)C(=O)NC(C)(Cc1c[nH]c2ccccc12)NC(C)=O` [Example 62, H-Me-Aib-(D)-Trp-(R)-Me-gTrp-acetyl], the GH (Table 8 test series) stood at 171.78 ± 10.32 ng/mL.
Compound `CC(C)(N)C(=O)NC(Cc1ccc2ccccc2c1)C(=O)NC(Cc1ccc2ccccc2c1)NC=O` (centres unmarked) [Example 43, H-Aib-(D)-2-Nal-g-(D)-2-Nal-formyl] returned a GH (Table 5 test series) of 37.33 ± 19.74 ng/mL.
In turn, “H-Aib-(D)-1-Nal-(D)-gTrp-formyl [Example 44]” had a GH (Table 5 test series) of 15.04 ± 03.30 ng/mL.
`CC(Cc1c[nH]c2ccccc12)(NC=O)NC(=O)C(Cc1c[nH]c2ccccc12)NC(=O)C(C)(C)N` [Example 61, H-Aib-(D)-Trp-(R)-Me-gTrp-formyl] returned a GH (Table 8 test series) of 152.28 ± 43.76 ng/mL.
For the setting “Table 4 test series”, `CNC(C)(C)C(=O)N[C@H](Cc1c[nH]c2ccccc12)C(=O)N(C)[C@H](Cc1c[nH]c2ccccc12)NC(C)=O` [Example 40, N-Me-Aib-D-Trp-N-Me-D-gTrp-C(O)CH3] gave a GH of 188.2 ± 28.5 ng/mL.
The compound `CNC(C)(C)C(=O)N[C@H](Cc1c[nH]c2ccccc12)C(=O)N[C@H](Cc1c[nH]c2ccccc12)NC(C)=O` [Example 5, N-Me-Aib-D-Trp-D-gTrp-C(O)CH3] registered a GH (Table 2 test series) of 175.5 ± 37.2 ng/mL.
Take `NC1(C(=O)NC(Cc2c[nH]c3ccccc23)C(=O)NC(Cc2c[nH]c3ccccc23)NC=O)CCCC1` (centres unmarked) [Example 55, H-Acc^5-(D)-Trp-(D)-gTrp-formyl]: the GH (Table 9 test series) stood at 11.46 ± 1.18 ng/mL.
Turning to `CN(C)C(C)(C)C(=O)NC(Cc1c[nH]c2ccccc12)C(=O)NC(Cc1c[nH]c2ccccc12)NC=O` (centres unmarked) [Example 52, N(Me)2-Aib-(D)-Trp-(D)-gTrp-formyl], the GH (Table 7 test series) was found to be 121.43 ± 29 ng/mL.
Regarding “H-Aib-(D)-3(R/S)-Dht-g-(D)-Trp-formyl [Example 49]”, the GH (Table 6 test series) came to 24.35 ± 4.85 ng/mL.
With `Cc1[nH]c2ccccc2c1C[C@@H](NC(=O)[C@@H](N)Cc1cnc[nH]1)C(=O)N[C@@H](C)C(=O)N[C@@H](Cc1c[nH]c2ccccc12)C(=O)N[C@H](Cc1ccccc1)C(=O)N[C@@H](CCCCN)C(N)=O` [HEXARELIN, Tyr-Ala-His-D-Mrp-Ala-Trp-D-Phe-Lys-NH2, reference compound] (H-H[dTrp(2-Me)]AW[dF]K-NH2), the GH is, setting by setting: (Table 1 test series) 202 ± 32.7 ng/mL; (Table 2 test series) 134.5 ± 27.2 ng/mL; (Table 3 test series) 114.7 ± 8.4 ng/mL; (Table 4 test series) 114.5 ± 12.9 ng/mL; (Table 5 test series) 276.01 ± 23.5 ng/mL; (Table 6 test series) 91.61 ± 4.09 ng/mL. Besides, the GH came to 172.5 ± 38.53 ng/mL (Table 7 test series), 172.5 ± 38.53 ng/mL (Table 8 test series), 89.91 ± 3.04 ng/mL (Table 9 test series) and 172.5 ± 38.53 ng/mL (Table 10 test series).
In the case of `NC1(C(=O)NC(Cc2c[nH]c3ccccc23)C(=O)NC(Cc2c[nH]c3ccccc23)NC=O)CCCCC1` (centres unmarked) [Example 56, H-Acc^6-(D)-Trp-(D)-gTrp-formyl], for the setting “Table 9 test series”, the GH is 8.49 ± 0.40 ng/mL.
The compound `O=CNC(Cc1c[nH]c2ccccc12)NC(=O)C(Cc1c[nH]c2ccccc12)NC(=O)C1CCNCC1` [Example 8, Isonipecotyl-D-Trp-D-gTrp-CHO] showed a GH (Table 3 test series) of 94.2 ± 8.6 ng/mL.
Consider `CCNC(=O)NC(Cc1c[nH]c2ccccc12)NC(=O)C(Cc1c[nH]c2ccccc12)NC(=O)C(C)(C)NC` (centres unmarked) [Example 59, N-Me-Aib-(D)-Trp-(D)-gTrp-C(O)NHCH2CH3], for which the GH (Table 10 test series) was 179.53 ± 24.65 ng/mL.
The compound `CNC(C)(C)C(=O)NC(Cc1c[nH]c2ccccc12)C(=O)NC(CC1CNc2ccccc21)NC(C)=O` (racemic) [Example 50, N(Me)-Aib-(D)-Trp-(D)-3(R/S)-gDht-acetyl] returned a GH (Table 6 test series) of 11.17 ± 1.35 ng/mL.
`CC(C)(N)C(=O)NC(C)(Cc1c[nH]c2ccccc12)C(=O)NC(Cc1c[nH]c2ccccc12)NC=O` [Example 60, H-Aib-(R)—Me-Trp-(D)-gTrp-formyl] registered a GH (Table 8 test series) of 21.02 ± 3.43 ng/mL.
Where the note is “Table 5 test series”, `CC(C)(N)C(=O)NC(Cc1c[nH]c2ccccc12)C(=O)NC(Cc1ccc2ccccc2c1)NC=O` [Example 47, H-Aib-D-Trp-g-D-2-Nal-formyl] yielded a GH of 9.04 ± 04.03 ng/mL.
Where the note is “Table 3 test series”, Pip-D-Trp-D-gTrp-CHO [Example 6] had a GH of 109.7 ± 10.1 ng/mL.
In turn, `CNC(C)(C)C(=O)NC(Cc1c[nH]c2ccccc12)C(=O)NC(Cc1c[nH]c2ccccc12)NC(=O)C1CCNCC1` [Example 39, N-Me-Aib-D-Trp-D-gTrp-Isonipecotyl] showed a GH (Table 4 test series) of 97.1 ± 21.0 ng/mL.
Compound `CC(C)(N)C(=O)NC(Cc1c[nH]c2ccccc12)C(=O)NC(Cc1c[nH]c2ccccc12)NC=O` (centres unmarked) [Example 13, H-Aib-(D)-Trp-gTrp-CHO] registered a GH (Table 1 test series) of 58 ± 6.3 ng/mL.
Turning to `CNC(C)(C)C(=O)NC(Cc1c[nH]c2ccccc12)C(=O)NC(Cc1c[nH]c2ccccc12)NC=O` [Example 3, N-Me-Aib-D-Trp-D-gTrp-CHO], the GH (Table 2 test series) is 86.6 ± 12.6 ng/mL.
As for `CC(=O)NC(Cc1c[nH]c2ccccc12)NC(=O)C(Cc1c[nH]c2ccccc12)NC(=O)C(C)(C)N` [Example 4, H-Aib-D-Trp-D-gTrp-C(O)CH3], under “Table 2 test series”, the GH came out at 104.7 ± 13.5 ng/mL.
On to Pip-D-Trp-D-gTrp-C(O)CH3 [Example 7], for which the GH (Table 3 test series) was 53.1 ± 6.6 ng/mL.
As for `CCNC(=O)NC(Cc1c[nH]c2ccccc12)NC(=O)C(Cc1c[nH]c2ccccc12)NC(=O)C(C)(C)N` (centres unmarked) [Example 58, H-Aib-(D)-Trp-(D)-gTrp-C(O)NHCH2CH3], the GH (Table 10 test series) was 376.48 ± 43.24 ng/mL.
`CC(C)(N)C(=O)NC(Cc1c[nH]c2ccccc12)C(=O)NC(CC1CNc2ccccc21)NC=O` (racemic) [Example 48, H-Aib-(D)-Trp-(D)-3(R/S)-Dht-formyl] registered a GH (Table 6 test series) of 17.49 ± 2.40 ng/mL.
As to `CC(=O)NC(Cc1c[nH]c2ccccc12)NC(=O)C(Cc1c[nH]c2ccccc12)NC(=O)C(C)(C)N(C)C` (centres unmarked) [Example 53, N(Me)2-Aib-(D)-Trp-(D)-gTrp-acetyl], the GH (Table 7 test series) came out at 26.80 ± 5.64 ng/mL.
As to `NC1(C(=O)NC(Cc2c[nH]c3ccccc23)C(=O)NC(Cc2c[nH]c3ccccc23)NC=O)CC1` (centres unmarked) [Example 54, H-Acc^3-(D)-Trp-(D)-gTrp-formyl], the GH (Table 9 test series) is 7.89 ± 3.20 ng/mL.
In the case of `CC(C)(N)C(=O)NC(Cc1cccc2ccccc12)C(=O)NC(Cc1cccc2ccccc12)NC=O` (centres unmarked) [Example 42, H-Aib-(D)-1-Nal-g-(D)-1-Nal-formyl], the GH (Table 5 test series) came out at 25.05 ± 06.00 ng/mL.
Still for that read-out and setting: in the case of `CC(C)(N)C(=O)N[C@H](Cc1c[nH]c2ccccc12)C(=O)NC(Cc1cccc2ccccc12)NC=O` (some centres unmarked) [Example 46, H-Aib-(D)-Trp-g-(D)-1-Nal-formyl] it was 8.26 ± 01.09 ng/mL.
Compound `CCCC(N)(CCC)C(=O)NC(Cc1c[nH]c2ccccc12)C(=O)NC(Cc1c[nH]c2ccccc12)NC=O` (centres unmarked) [Example 57, H-Dpg-(D)-Trp-(D)-gTrp-formyl] registered a GH (Table 9 test series) of 18.38 ± 2.88 ng/mL.
For the compound `CCC(=O)NC(Cc1c[nH]c2ccccc12)NC(=O)C(Cc1c[nH]c2ccccc12)NC(=O)C(C)(C)N` [Example 19, Aib-D-Trp-gTrp-CO—CH2—CH3], the GH (Table 3 test series) turned out to be 79.8 ± 22.4 ng/mL.
`CNC(C)(C)C(=O)NC(CC1CNc2ccccc21)C(=O)NC(Cc1c[nH]c2ccccc12)NC(C)=O` (racemic) [Example 51, N(Me)-Aib-(D)-3(R/S)-Dht-(D)-gTrp-acetyl] returned a GH (Table 6 test series) of 19.38 ± 4.16 ng/mL.
`CC(C)(N)C(=O)NC(Cc1ccc2ccccc2c1)C(=O)NC(Cc1c[nH]c2ccccc12)NC=O` (centres unmarked) [Example 45, H-Aib-(D)-2-Nal-(D)-gTrp-formyl] registered a GH (Table 5 test series) of 13.91 ± 03.87 ng/mL.
As to “H-Aib-D-Trp-N-Me-D-gTip-C(O)CH3 [Example 41]”, the GH (Table 4 test series) is 75.4 ± 15.0 ng/mL.
For the setting “Table 3 test series”, `CC(C)(N)C(=O)NC(Cc1c[nH]c2ccccc12)C(=O)NC(Cc1c[nH]c2ccccc12)NC(=O)C1CCNCC1` [Example 22, Aib-D-Trp-gTrp-CO-piperidin-4-yl] came in with a GH of 153.6 ± 30.6 ng/mL.
